{"source": "PubChem BioAssay AID493130", "about": "(Broad Institute, 2011)", "note": "Results filed as inconclusive are left out. Active and inactive are the calls of the source.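 Rule for the calls: active = signal-lowering compounds whose fitted half-maximal concentration is at most ten times their highest tested dose; inconclusive = flat fit between -30 and -70%, or poor fit; inactive = flat within 30%, signal rising, or potency beyond limit.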"}
{"target": "POS-1 (Caenorhabditis elegans) binding to mex-3 RNA", "test": "C. elegans POS-1 RNA interaction disruptors – biochemical, fluorescence polarization, cherry-picked samples, set 2, counter-screen for MEX-5 RNA-binding inhibitor project, dose response (AID 493130);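 note: POS-1 as maltose binding protein fusion made in E. coli with FITC RNA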;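 for activity change, negative = inhibition: 0% = DMSO neutral wells and -100% = excess unlabeled mex3 competitor RNA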", "conditions": "POS-1/mex-3 RNA fluorescence polarization, 1 h", "units": {"AC50": "µM"}}
{"smiles": "O=C(O)C1Nc2c(Cl)cc(Cl)cc2C2C=CCC12", "note": "(stereo unspecified)", "AC50": 5.13}
{"smiles": "O=C(O[C@@H]1OC2COC(=O)c3cc(O)c(O)c(O)c3-c3c(cc(O)c(O)c3O)C(=O)O[C@@H]([C@H]1O)[C@@H]2O)c1cc(O)c(O)c(O)c1", "AC50": 2.27}
{"smiles": "Cn1c(=O)c(Nc2ccc(Cl)cc2)c2c3c(cccc31)C(=O)c1ccccc1-2", "AC50": 0.907}
{"smiles": "CC(=O)Nc1ccc2cc3ccc(NC(C)=O)cc3nc2c1", "AC50": 6.38}
{"smiles": "Cc1cc[n+](-c2[nH]c(=O)sc2/C=N/NC([S-])=Nc2ccccc2)cc1", "AC50": 2.39}
{"smiles": "CN1Cc2sc(N)c(C#N)c2CC1(C)C", "AC50": 9.75}
{"smiles": "COc1ccc(NC(=S)NNc2ccc(S(=O)(=O)Nc3ccccc3C(=O)O)cc2[N+](=O)[O-])cc1", "AC50": 4.53}
{"smiles": "Cc1oc2c(cc(NS(=O)(=O)c3ccc(C(C)C)cc3)c3ccccc32)c1C(=O)O", "AC50": 10.4}
{"smiles": "CCNC(=S)N/N=C/c1sc(N2CCCCC2)nc1-c1cccs1", "AC50": 4.68}
{"smiles": "CN1CC=C2C(C#N)=C(N)C(C#N)(C#N)[C@H](c3cccs3)[C@H]2C1", "AC50": 6.12}
{"smiles": "CN(C)[C@@H]1C(=O)C(C(N)=O)=C(O)[C@@]2(O)C(=O)C3=C(O)c4c(O)cccc4[C@@](C)(O)[C@H]3[C@H](O)[C@@H]12", "AC50": 4.07}
{"target": "POS-1 (Caenorhabditis elegans) binding to mex-3 RNA", "test": "C. elegans POS-1 RNA interaction disruptors – biochemical, fluorescence polarization, cherry-picked samples, set 2, counter-screen for MEX-5 RNA-binding inhibitor project, dose response (AID 493130);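 note: POS-1 as maltose binding protein fusion made in E. coli with FITC RNA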;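 for activity change, negative = inhibition: 0% = DMSO neutral wells and -100% = excess unlabeled mex3 competitor RNA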", "conditions": "POS-1/mex-3 RNA fluorescence polarization, 1 h; at 10 µM (top of the series)"}
{"smiles": "CN(C)S(=O)(=O)c1ccc(Cl)c(C(=O)Nc2cccc3ncccc23)c1", "activity change, negative = inhibition": "inactive"}
{"smiles": "COc1ccccc1-n1c(C)nc2cc(C(=O)NCc3ccc4c(c3)OCO4)ccc21", "activity change, negative = inhibition": "inactive"}
{"smiles": "CNC(=O)c1cc2ccc(OC)cc2oc1=O", "activity change, negative = inhibition": "inactive"}
{"smiles": "COCc1cc(C)nc(N/N=C/c2ccc(-c3cc(C(=O)O)ccc3Cl)o2)c1C#N", "activity change, negative = inhibition": "inactive"}
{"smiles": "CCN(CC)c1ccc(/C=N/NC(=O)c2cccc(S(=O)(=O)Nc3ccccc3OC)c2)c(O)c1", "activity change, negative = inhibition": "inactive"}
{"smiles": "CN(C)c1ccc(C(c2nnnn2CCOC(=O)Nc2ccc(Cl)cc2)N2CCOCC2)cc1", "note": "(stereo unspecified)", "activity change, negative = inhibition": "inactive"}
{"smiles": "CCN(CC)c1ccc(C(=O)N/N=C(\\C)c2cccnc2)cc1", "activity change, negative = inhibition": "inactive"}
{"smiles": "CCc1cc(-c2n[nH]c(C)c2-c2nc3ccccc3s2)c(O)cc1OCC(=O)NN", "activity change, negative = inhibition": "inactive"}
{"smiles": "O=C1SC(SCc2ccccc2)=N/C1=C\\c1ccc(C(=O)O)cc1", "activity change, negative = inhibition": "inactive"}
{"smiles": "O=C(O)CCCCCN1C(=O)C(O)=C(C(=O)/C=C/c2ccccc2)C1c1ccccc1[N+](=O)[O-]", "note": "(stereo unspecified)", "activity change, negative = inhibition": "inactive"}
{"smiles": "O=C(O)CCCN1C(=O)/C(=C\\c2ccc(-c3nc4ccccc4s3)o2)SC1=S", "activity change, negative = inhibition": "inactive"}
{"smiles": "N[C@@H](Cc1ccccc1)C(=O)N1CCC(C(=O)NCC(=O)Nc2ccc(F)cc2)CC1", "activity change, negative = inhibition": "inactive"}
{"smiles": "CCOc1ccc(/C=N/n2c(C)nc3ccccc3c2=O)cc1", "activity change, negative = inhibition": "inactive"}
{"smiles": "CS(=O)(=O)/C(C#N)=C/c1c(-c2ccccc2)nc2n1CCS2", "activity change, negative = inhibition": "inactive"}
{"smiles": "CC(C)OC(=O)c1c2c(n3ccccc13)C(=O)c1ccccc1C2=O", "activity change, negative = inhibition": "inactive"}
{"smiles": "CSCC(C)N1CCC(n2nccc2NC(=O)CCc2ccccc2)CC1", "note": "(stereo unspecified)", "activity change, negative = inhibition": "inactive"}
{"smiles": "Cc1cc(C)cc(N2C(=O)NC(=O)/C(=C/c3cccn3-c3ccc(Cl)cc3)C2=O)c1", "activity change, negative = inhibition": "inactive"}
{"smiles": "Cc1cccnc1Nc1nc(-c2ccc(O)cc2O)cs1", "activity change, negative = inhibition": "inactive"}
{"smiles": "CCN(CC)c1ccc2nc3ccccc3[n+](CC)c2c1", "activity change, negative = inhibition": "inactive"}
{"smiles": "CC(=O)c1c2c3c(c(Br)ccc3n(C)c1=O)C(=O)c1ccccc1-2", "activity change, negative = inhibition": "inactive"}
{"smiles": "COc1ccc(/C=C2\\C(=O)NC(=S)N2C(=O)c2ccc(C)cc2)cc1", "activity change, negative = inhibition": "inactive"}
{"smiles": "Nc1nc(Cl)nc2ccc(Br)cc12", "activity change, negative = inhibition": "inactive"}
{"smiles": "Nc1ccc2nc(CN3CCOCC3)[nH]c2c1", "activity change, negative = inhibition": "inactive"}
{"smiles": "COc1ccccc1-c1cn[nH]c1-c1ccc(O)cc1O", "activity change, negative = inhibition": "inactive"}
{"smiles": "Cc1cc(/C=C2\\C(=O)NC(=O)N(Cc3ccccc3)C2=O)c(C)n1-c1ccc(Cl)c(C(=O)O)c1", "activity change, negative = inhibition": "inactive"}
{"smiles": "Cc1cc(/C=C2\\C(=O)NC(=O)N(c3cccc(F)c3)C2=O)c(C)n1-c1cc(C(=O)O)cc(C(=O)O)c1", "activity change, negative = inhibition": "inactive"}
{"smiles": "NC(=S)N=Nc1c(O)[nH]c2ccccc12", "activity change, negative = inhibition": "inactive"}
{"smiles": "Cc1ccc(O)c(N=CC2=C(O)c3ccccc3C2=O)c1", "activity change, negative = inhibition": "inactive"}
{"smiles": "Cc1c(C#N)c(O)[nH]c(=O)c1N=Nc1ccc(S(N)(=O)=O)cc1", "activity change, negative = inhibition": "inactive"}
{"smiles": "CCOC(=O)CC1=C(C(=O)OCC)C(c2ccc(OC)cc2OC)C(C#N)=C(N)O1", "note": "(stereo unspecified)", "activity change, negative = inhibition": "inactive"}
{"smiles": "COCCNc1ncnc2nc[nH]c12", "activity change, negative = inhibition": "inactive"}
{"smiles": "O=C(NNS(=O)(=O)c1ccc(F)cc1)c1cnccn1", "activity change, negative = inhibition": "inactive"}
{"smiles": "CC(=O)Nc1ccc(-c2csc(Nc3cccc(C)n3)n2)cc1", "activity change, negative = inhibition": "inactive"}
{"smiles": "Cc1csc(NC(=O)c2ccc(-c3ccc(Cl)cc3Cl)o2)n1", "activity change, negative = inhibition": "inactive"}
{"smiles": "Cc1sc2ncnc(N/N=C/c3ccccc3O)c2c1C", "activity change, negative = inhibition": "inactive"}
{"smiles": "CCn1c(C)c(C(C)=O)c(N2CCN(c3ccccc3)CC2)nc1=S", "activity change, negative = inhibition": "inactive"}
{"smiles": "O=C1S/C(=C\\c2cccs2)C(=O)N1c1ccc(O)cc1", "activity change, negative = inhibition": "inactive"}
{"smiles": "O=C(Cc1csc(N2CCOCC2)n1)N/N=C/c1ccc(O)c(O)c1O", "activity change, negative = inhibition": "inactive"}
{"smiles": "CC(=O)CSc1ncnc2nc[nH]c12", "activity change, negative = inhibition": "inactive"}
{"smiles": "CC1(C)CC(=O)C2=C(C1)OC(N)=C(C#N)C2c1ccccc1[N+](=O)[O-]", "note": "(stereo unspecified)", "activity change, negative = inhibition": "inactive"}
{"smiles": "O=C(O)c1[nH]c2ccccc2c1C(c1cc(Br)ccc1O)c1c(C(=O)O)[nH]c2ccccc12", "activity change, negative = inhibition": "inactive"}
{"smiles": "O=C(O)CCC(=O)NNc1ncnc2ccccc12", "activity change, negative = inhibition": "inactive"}
{"smiles": "COc1ccc(CN2C(=O)NC(=O)/C(=C\\c3ccco3)C2=O)cc1", "activity change, negative = inhibition": "inactive"}
{"smiles": "Oc1cccc(/C=N/NC(=S)Nc2cccnc2)c1O", "activity change, negative = inhibition": "inactive"}
{"smiles": "CC1=C(C(=O)OCc2ccccc2)C(c2ccc(N(C)C)cc2)NC(=O)N1", "note": "(stereo unspecified)", "activity change, negative = inhibition": "inactive"}
{"smiles": "CCc1ccc(S(=O)(=O)/N=C2\\C=C(Nc3ccc(C(=O)O)cc3)C(=O)c3ccccc32)cc1", "activity change, negative = inhibition": "inactive"}
{"smiles": "Nc1nc(N)c2[nH]cnc2n1", "activity change, negative = inhibition": "inactive"}
{"smiles": "Nc1ccccc1C(=O)NNC(=O)C(=O)/C=C(\\O)c1ccccc1", "activity change, negative = inhibition": "inactive"}
{"smiles": "Cc1ccc(-c2nc(C=Nc3cccc(C)c3)c(O)o2)cc1", "activity change, negative = inhibition": "inactive"}
{"smiles": "O=C(CCN1C(=O)/C(=C\\c2ccco2)SC1=S)Nc1ccc(C(=O)O)c(O)c1", "activity change, negative = inhibition": "inactive"}
{"smiles": "COc1cc2c(cc1O)C[C@H]1NCCc3cc4c(c-2c31)OCO4", "activity change, negative = inhibition": "inactive"}
{"smiles": "CCCCNc1c(N)n(CCCC)c(=O)[nH]c1=O", "activity change, negative = inhibition": "inactive"}
{"smiles": "O=C1/C(=C\\c2ccc(Br)cc2)SC(=S)N1NS(=O)(=O)c1ccccc1", "activity change, negative = inhibition": "inactive"}
{"smiles": "C[C@H](O)CC1=C[C@H](O)[C@@H](C)OC1=O", "activity change, negative = inhibition": "inactive"}
{"smiles": "NC(=S)N=Nc1c(O)[nH]c2cc(F)c(F)cc12", "activity change, negative = inhibition": "inactive"}
{"smiles": "CCOC(=O)c1cc(-c2ccccc2)sc1NC(=S)Nc1cccc(C)n1", "activity change, negative = inhibition": "inactive"}
{"smiles": "COc1cccc(NC(=S)NNC(=O)C(C)n2nc(C)c([N+](=O)[O-])c2C)c1", "note": "(stereo unspecified)", "activity change, negative = inhibition": "inactive"}
{"smiles": "N#CCCn1c2ccccc2c2nc3ccccc3nc21", "activity change, negative = inhibition": "inactive"}
{"smiles": "CCOC(=O)NC(=O)COC(=O)c1ccc(Sc2ncn[nH]2)c([N+](=O)[O-])c1", "activity change, negative = inhibition": "inactive"}
{"smiles": "CCOC(=O)C1CCN(c2nc3ccccc3nc2C(C#N)C(=O)OC(C)C)CC1", "note": "(stereo unspecified)", "activity change, negative = inhibition": "inactive"}
{"smiles": "Cc1ccc(O)c(-c2cc(C(=O)Nc3ccc(S(=O)(=O)Nc4nc(C)cc(C)n4)cc3)[nH]n2)c1", "activity change, negative = inhibition": "inactive"}
{"smiles": "Cc1ccc(S(=O)(=O)N/N=C/c2ccc(O)c(O)c2)cc1[N+](=O)[O-]", "activity change, negative = inhibition": "inactive"}
{"smiles": "O=C(O)c1ccccc1N=Nc1c(O)[nH]c2ccc([N+](=O)[O-])cc12", "activity change, negative = inhibition": "inactive"}
{"smiles": "NC1=C([N+](=O)[O-])C(c2ccc3c(c2)OCO3)C2=C(CCCC2=O)O1", "note": "(stereo unspecified)", "activity change, negative = inhibition": "inactive"}
{"smiles": "O=C(O)c1cc(-c2ccc(/C=c3\\sc4nc5ccc(Br)cc5n4c3=O)o2)ccc1Cl", "activity change, negative = inhibition": "inactive"}
{"smiles": "CCOC(=O)Cc1csc(NC(=O)c2sc3nc4ccc(C)cc4cc3c2N)n1", "activity change, negative = inhibition": "inactive"}
{"smiles": "NS(=O)(=O)c1ccc(N=Nc2ccc(=O)[nH]c2O)cc1", "activity change, negative = inhibition": "inactive"}
{"smiles": "O=c1[nH]cnc2c1C(c1ccccc1)c1c(nc[nH]c1=O)O2", "activity change, negative = inhibition": "inactive"}
{"smiles": "COc1cccc(-c2cn3nc4c(nc3n2)CCCC4)c1", "activity change, negative = inhibition": "inactive"}
{"smiles": "O=C(Cc1cccs1)Nc1nnc(SCc2ccc(Br)cc2)s1", "activity change, negative = inhibition": "inactive"}
{"smiles": "CCCn1c(=N)c(C(=O)NC2CCCC2)cc2c(=O)n3cccc(C)c3nc21", "activity change, negative = inhibition": "inactive"}
{"smiles": "O=C(NNc1ccccc1)C(=O)NNS(=O)(=O)c1ccc(CCCl)cc1", "activity change, negative = inhibition": "inactive"}
{"smiles": "COc1ccc(CC(=O)NNC(=O)c2cnccn2)cc1", "activity change, negative = inhibition": "inactive"}
{"smiles": "N=C1C(c2nc3ccccc3[nH]2)=C(O)CN1c1ccccc1", "activity change, negative = inhibition": "inactive"}
{"smiles": "Cc1nc2cc(C(=O)O)ccc2n1-c1ccc(F)cc1F", "activity change, negative = inhibition": "inactive"}
{"smiles": "O=c1[nH]cnc2c1C(c1ccc(Cl)cc1)c1c(nc[nH]c1=O)O2", "activity change, negative = inhibition": "inactive"}
{"smiles": "C#CCOCCOCCOCCNc1nc(N2CCN(C(=O)[C@H](CCCCN)n3cc(C(N)CO)nn3)CC2)nc(N2CCN(C(=O)[C@H](CCC(=O)O)n3cc(C(N)CC(C)C)nn3)CC2)n1", "note": "(stereo partly specified)", "activity change, negative = inhibition": "inactive"}
{"smiles": "COc1ccc(OC)c(/C=N/NC(=O)c2ccc(=O)[nH]n2)c1", "activity change, negative = inhibition": "inactive"}
{"smiles": "O=C(O)c1ccc(N2C(=O)c3cccc4c(C(=O)O)ccc(c34)C2=O)cc1", "activity change, negative = inhibition": "inactive"}
{"smiles": "CCC(=O)NCCc1nc2ccccc2n1Cc1ccccc1", "activity change, negative = inhibition": "inactive"}
